“And” between values parts separate entries of the source, which are not always exact repeats. Equal entries are not always repeated. Where a SMILES comes first, the peptide text is derived from it. Where no end group is shown, it is not given here.
What was measured:
[1] = biological target: extrinsic activation complex (factor VIIa:tissue factor) (Homo sapiens, UniProt P08709+P13726); test: Rate of Factor Xa formation by the extrinsic activation complex, kinetic chromogenic assay; format: biochemical; settings: for Factor Xa Formation (% of Control Rate) Extrinsic: 1 mg/ml (0.29-1.1 mM) peptide, 30 min at 37 degrees preincubation
Chain of extrinsic activation complex (factor VIIa:tissue factor) (P08709 61-212 limits assumed): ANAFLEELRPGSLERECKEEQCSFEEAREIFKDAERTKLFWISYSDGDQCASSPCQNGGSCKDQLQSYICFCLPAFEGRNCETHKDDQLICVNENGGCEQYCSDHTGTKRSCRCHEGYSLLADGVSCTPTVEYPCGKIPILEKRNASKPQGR
Chain of extrinsic activation complex (factor VIIa:tissue factor) (P08709 213-466 limits assumed): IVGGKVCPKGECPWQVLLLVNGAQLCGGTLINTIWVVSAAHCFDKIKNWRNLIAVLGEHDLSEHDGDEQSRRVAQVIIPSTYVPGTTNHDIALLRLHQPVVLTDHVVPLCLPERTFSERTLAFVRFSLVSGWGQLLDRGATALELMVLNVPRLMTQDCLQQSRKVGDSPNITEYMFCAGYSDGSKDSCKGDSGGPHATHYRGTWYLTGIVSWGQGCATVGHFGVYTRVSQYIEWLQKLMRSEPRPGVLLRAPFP
Chain of extrinsic activation complex (factor VIIa:tissue factor) (P13726 33-295): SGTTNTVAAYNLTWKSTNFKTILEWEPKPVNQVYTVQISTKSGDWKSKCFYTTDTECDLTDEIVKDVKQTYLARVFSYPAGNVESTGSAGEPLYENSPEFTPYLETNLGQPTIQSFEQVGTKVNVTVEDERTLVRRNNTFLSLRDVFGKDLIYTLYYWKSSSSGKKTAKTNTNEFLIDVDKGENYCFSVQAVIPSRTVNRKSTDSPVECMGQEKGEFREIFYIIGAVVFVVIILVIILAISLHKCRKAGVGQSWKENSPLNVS

[2] = biological target: RVV-X (Daboia siamensis, UniProt Q4PRD1+Q4PRD2+Q7LZ61); test: biochemical; design: species or system Russell's viper
[3] = biological target: T1, Factor Xa:Factor Va complex (Homo sapiens, UniProt P12259); test: Rate of thrombin formation (prothrombin activation by Factor Xa), chromogenic assay; format: biochemical; settings: for Thrombin Formation (% of Control Rate): 200 μM final concentration of peptide
T1 sequence (P12259 29-737 limits assumed): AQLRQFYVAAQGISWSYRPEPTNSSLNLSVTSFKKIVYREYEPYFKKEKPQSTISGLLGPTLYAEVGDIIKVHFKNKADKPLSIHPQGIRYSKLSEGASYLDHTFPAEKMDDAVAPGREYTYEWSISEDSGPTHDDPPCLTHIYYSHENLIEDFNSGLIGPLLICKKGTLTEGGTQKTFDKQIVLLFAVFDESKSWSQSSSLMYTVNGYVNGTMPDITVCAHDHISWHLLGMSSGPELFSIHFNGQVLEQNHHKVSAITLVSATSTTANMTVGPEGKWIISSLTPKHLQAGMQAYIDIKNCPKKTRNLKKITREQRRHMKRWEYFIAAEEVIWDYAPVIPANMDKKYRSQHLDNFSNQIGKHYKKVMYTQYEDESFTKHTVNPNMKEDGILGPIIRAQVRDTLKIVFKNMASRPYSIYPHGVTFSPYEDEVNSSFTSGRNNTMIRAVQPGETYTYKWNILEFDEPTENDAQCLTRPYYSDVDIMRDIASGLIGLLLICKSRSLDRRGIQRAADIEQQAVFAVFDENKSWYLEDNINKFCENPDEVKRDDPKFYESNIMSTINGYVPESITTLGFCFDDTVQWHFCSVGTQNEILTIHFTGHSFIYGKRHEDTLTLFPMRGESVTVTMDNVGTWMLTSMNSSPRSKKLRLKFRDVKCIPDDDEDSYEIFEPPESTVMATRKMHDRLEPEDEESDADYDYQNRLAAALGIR
T1 sequence (P12259 1574-2224 limits assumed): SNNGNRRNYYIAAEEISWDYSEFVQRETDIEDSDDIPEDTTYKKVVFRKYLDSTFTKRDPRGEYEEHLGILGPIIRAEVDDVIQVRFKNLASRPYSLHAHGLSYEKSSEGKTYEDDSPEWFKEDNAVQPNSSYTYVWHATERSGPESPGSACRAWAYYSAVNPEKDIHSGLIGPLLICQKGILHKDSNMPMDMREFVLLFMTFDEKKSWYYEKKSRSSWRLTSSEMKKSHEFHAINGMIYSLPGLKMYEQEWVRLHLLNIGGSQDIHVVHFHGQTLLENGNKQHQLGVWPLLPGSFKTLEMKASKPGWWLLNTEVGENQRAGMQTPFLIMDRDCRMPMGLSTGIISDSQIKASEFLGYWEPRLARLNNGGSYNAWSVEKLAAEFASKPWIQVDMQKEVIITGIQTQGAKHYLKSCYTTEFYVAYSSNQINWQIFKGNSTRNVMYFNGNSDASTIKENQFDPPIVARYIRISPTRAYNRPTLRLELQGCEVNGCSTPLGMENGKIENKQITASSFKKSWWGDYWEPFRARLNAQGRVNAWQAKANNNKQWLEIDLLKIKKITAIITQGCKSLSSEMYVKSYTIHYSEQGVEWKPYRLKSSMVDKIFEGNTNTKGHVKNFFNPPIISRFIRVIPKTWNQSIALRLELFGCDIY
Description: b. Rate of Thrombin Formation: The ability of the synthetic peptides to inhibit Factor Xa function was assessed by their capacity to impede the rate of thrombin formation using a purified system and employing a specific thrombin chromogenic substrate. To 10 ul of Factor V (1.5 nM) was added 10 ul of phospholipid vesicles (30 uM), 3.3 ul of CaCl2 (100 mM) and 57 ul of TBS-BSA or synthetic peptide. The mixture was incubated at 37 degrees Centigrade for 15 minutes, after which 20 ul of Factor Xa (12 pM) and prothrombin (0.35 uM) were added to initiate the reaction.
At defined time intervals from initiation of either reaction (a) or (b), 20 ul aliquots were removed and added to a microtiter plate containing 80 ul of 50 mM Tris-HCl, 225 mM NaCl, 10 mM EDTA, pH 8.2. […] The rate of Factor Xa or thrombin formation was calculated from the slope of linear regressions of data plotted as a function of the initial rate of hydrolysis (OD 405/min) versus time and expressed as OD 405/min/min.
Factor Xa associates with activated Factor Va on a phospholipid surface in the presence of calcium. A chromogenic assay was used to investigate the ability of the panel of synthetic peptides to inhibit the activation of prothrombin by Factor Xa. In preliminary experiments it was determined that similar results were obtained whether prothrombin was added before or after factor Xa and that the 15 minute incubation period was sufficient for the peptide-protein interactions to reach equilibrium. […] Seven peptides prevented thrombin formation by greater than 40% when compared to reactions containing buffer only. These peptides represented the amino acid sequences 211-222, 237-262, 254-269, 267-283, 284-303, 363-375, 417-431. Thus, a limited number of synthetic peptides representing the primary structure of Factor Xa could inhibit this reaction and these were analyzed further.

[4] = biological target: T2, intrinsic activation complex (factor IXa:factor VIIIa) (Homo sapiens, UniProt P00451+P00740); test: Rate of Factor Xa formation by the intrinsic activation complex, kinetic chromogenic assay; format: biochemical; settings: for Factor Xa Formation (% of Control Rate) Intrinsic: 1 mg/ml (0.29-1.1 mM) peptide, 30 min at 37 degrees preincubation
T2 construct: Factor IXa was produced from contact product (14) and isolated as previously described (12); made in house; host or cells: Factor IXa produced from isolated Factor IX with contact product; Factor VIII was a gift from Rorer Biotechnology, Inc
T2 sequence (P00740 47-191 limits assumed): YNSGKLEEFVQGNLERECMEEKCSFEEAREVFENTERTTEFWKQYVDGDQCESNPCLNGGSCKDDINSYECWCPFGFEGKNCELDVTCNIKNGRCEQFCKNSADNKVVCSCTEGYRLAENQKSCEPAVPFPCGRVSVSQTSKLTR
T2 sequence (P00740 227-461 limits assumed): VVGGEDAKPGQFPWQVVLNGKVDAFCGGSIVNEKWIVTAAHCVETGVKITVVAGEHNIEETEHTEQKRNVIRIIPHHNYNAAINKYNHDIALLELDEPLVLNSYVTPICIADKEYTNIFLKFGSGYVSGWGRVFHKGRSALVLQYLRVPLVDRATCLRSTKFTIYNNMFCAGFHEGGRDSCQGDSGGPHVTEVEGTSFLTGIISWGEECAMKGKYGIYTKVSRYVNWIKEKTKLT
T2 sequence (P00451 20-391 limits assumed): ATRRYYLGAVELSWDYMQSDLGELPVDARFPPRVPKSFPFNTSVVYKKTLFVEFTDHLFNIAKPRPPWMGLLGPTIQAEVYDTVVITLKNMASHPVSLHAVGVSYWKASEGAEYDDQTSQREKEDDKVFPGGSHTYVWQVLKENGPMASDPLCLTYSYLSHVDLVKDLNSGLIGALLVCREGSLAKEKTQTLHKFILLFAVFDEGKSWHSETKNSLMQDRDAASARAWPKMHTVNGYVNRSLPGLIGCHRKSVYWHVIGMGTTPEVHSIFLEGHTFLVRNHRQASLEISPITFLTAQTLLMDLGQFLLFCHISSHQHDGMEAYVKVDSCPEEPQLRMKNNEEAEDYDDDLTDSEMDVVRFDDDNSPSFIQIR
T2 sequence (P00451 392-759 limits assumed): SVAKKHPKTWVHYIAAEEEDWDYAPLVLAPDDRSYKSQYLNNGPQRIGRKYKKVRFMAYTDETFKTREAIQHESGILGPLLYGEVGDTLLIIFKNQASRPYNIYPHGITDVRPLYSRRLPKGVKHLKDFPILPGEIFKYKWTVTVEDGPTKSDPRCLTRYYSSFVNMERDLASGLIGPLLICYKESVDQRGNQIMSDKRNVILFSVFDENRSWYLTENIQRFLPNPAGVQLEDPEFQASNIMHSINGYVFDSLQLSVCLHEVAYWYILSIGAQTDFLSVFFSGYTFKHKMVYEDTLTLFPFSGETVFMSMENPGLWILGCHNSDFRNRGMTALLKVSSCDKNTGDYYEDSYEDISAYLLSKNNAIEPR
T2 sequence (P00451 1709-2351 limits assumed): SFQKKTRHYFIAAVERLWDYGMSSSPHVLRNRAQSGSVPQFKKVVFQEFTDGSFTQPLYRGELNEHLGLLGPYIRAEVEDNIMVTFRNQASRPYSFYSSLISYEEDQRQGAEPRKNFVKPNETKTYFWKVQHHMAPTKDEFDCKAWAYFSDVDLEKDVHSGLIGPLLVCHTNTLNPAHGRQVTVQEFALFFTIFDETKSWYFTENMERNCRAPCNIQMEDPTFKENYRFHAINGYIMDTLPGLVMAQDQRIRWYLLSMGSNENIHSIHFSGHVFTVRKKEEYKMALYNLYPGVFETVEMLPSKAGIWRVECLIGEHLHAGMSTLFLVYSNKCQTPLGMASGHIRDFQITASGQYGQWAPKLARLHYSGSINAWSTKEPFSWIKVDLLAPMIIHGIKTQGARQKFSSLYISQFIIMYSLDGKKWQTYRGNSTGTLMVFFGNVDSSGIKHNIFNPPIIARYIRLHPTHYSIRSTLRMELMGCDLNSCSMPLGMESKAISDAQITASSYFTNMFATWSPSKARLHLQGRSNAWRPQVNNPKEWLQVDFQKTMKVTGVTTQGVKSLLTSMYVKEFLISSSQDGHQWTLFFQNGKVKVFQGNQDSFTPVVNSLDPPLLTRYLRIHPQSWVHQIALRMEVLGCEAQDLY

[5] = system: Factor X coagulant activity, RVV-X pathway; test: Two-stage clotting assay, RVV-X mediated activation of Factor X; design: species or system human
[6] = system: Factor X coagulant activity, extrinsic pathway; test: Two-stage clotting assay, extrinsic activation of Factor X
Description: (§1) Coagulation Assays: The effect of the synthetic peptide and antibodies to them on Factor X coagulation activity was determined using two-stage clotting assays specific for Factor X activation by the intrinsic, extrinsic, and RVV-X activation enzyme complexes.
(§2) For determination of extrinsic activation of Factor X, 50 ul of bovine Factor VII/X deficient plasma was added 50 ul each of 1.5 nM Factor VII/VIIa, 1% tissue factor, 25 mM CaCl2, and peptide in TBS-BSA. Following incubation for 30 min at 37 degrees Centigrade, coagulation was initiated by the addition of 50 ul of 200 nM of Factor X, and the time for clot formation was measured. […] Factor X (50 ul of 105 nM) was added to initiate the reaction and the time for clot formation measured. […] Factor X and Xa activity was measured by the addition of 50 ul of 25 nM Factor X and the time for clot formation determined. […]
(§3) Analogous determinations of the CI50 values were measured in each of the specific coagulation assays outlined above. Factor X/Xa activity in the presence of varying concentrations of peptide was measured by comparing the clotting times to a standard curve constructed from the log of the clot time versus the log of Factor X concentration in the same incubation mixtures lacking peptides. […]

[7] = system: Factor X coagulant activity, intrinsic pathway; test: Two-stage clotting assay, intrinsic activation of Factor X
Description: as §1, §2, §3

[8] = 267-283 at 6 uM, 284-303 at 60 uM, 417-431 at 600 uM, alone or mixed

TEQE*GGEAVHEVEVVIK [Peptide 253-270]
inhibition of the rate and extent of Factor X activation by the extrinsic activation complex ([1]; 400 uM peptide, Factor X 5.25-84 nM (FIG. 1)): approximately 20%
Factor Xa Formation (% of Control Rate) Extrinsic [1]: 100 % of Control Rate
Factor Xa Formation (% of Control Rate) RVVX [2]: 71

C[C@H](NC(=O)[C@H](CC(=O)O)NC(=O)[C@H](CCC(=O)O)NC(=O)[C@H](CCC(N)=O)NC(=O)[C@H](CCCCN)NC(=O)[C@@H](NC(=O)[C@H](CC(=O)O)NC(=O)[C@H](Cc1ccc(O)cc1)NC(=O)CNC(=O)[C@H](C)NC(=O)[C@H](CS)NC(=O)[C@@H](N)Cc1ccccc1)[C@@H](C)O)C(=O)N[C@@H](CS)C(=O)O [Peptide 363-375] (H-FCAGYDTKQEDAC-OH; N-terminus and C-terminus assumed)
mode of inhibition of prothrombin activation ([3]; Dixon plots, varying prothrombin): noncompetitive

LYQAKRF *EGDRNTEQEEGG(K) [Peptide 238-259 + K]
Factor Xa Formation (% of Control Rate) Extrinsic [1]: 100 % of Control Rate
Factor Xa Formation (% of Control Rate) Intrinsic [4]: 71 % of Control Rate
Factor Xa Formation (% of Control Rate) RVVX [2]: 100
Thrombin Formation (% of Control Rate) [3]: 98 % of Control Rate

VVIKHNRFTKETYDFDI [Peptide 267-283]
inhibition at 400 µM ([1]; 400 uM peptide, Factor X 5.25-84 nM (FIG. 1), read-out: inhibition of the rate and extent of Factor X activation by the extrinsic activation complex): ≥ 90%

CARGYTLADNGKAC [Peptide 111-124]
Factor Xa Formation (% of Control Rate) Extrinsic [1]: 83 % of Control Rate
Factor Xa Formation (% of Control Rate) Intrinsic [4]: 121 % of Control Rate
Factor Xa Formation (% of Control Rate) RVVX [2]: 77
Thrombin Formation (% of Control Rate) [3]: 100 % of Control Rate

AVLRLKTPITFRMNVAPACL [Peptide 284-303]
Factor Xa Formation (% of Control Rate) Extrinsic [1]: 19 % of Control Rate
Factor X Activation (% Control) Experiment #1 Observed [1, 8]: 35.0 % Control
Factor X Activation (% Control) Experiment #2 Observed [1, 8]: 47.8 % Control
Ki ([1]; Dixon plots, mean ± SD for 4 to 5 determinations, read-out: Ki for Factor X Activation, Extrinsic): 73.6 ± 7.79 µM
IC50 ([1]; chromogenic assay, read-out: Concentration for 50% Inhibition, Rate of Factor Xa Formation, Extrinsic): 78 µM
Factor Xa Formation (% of Control Rate) Intrinsic [4]: 0 % of Control Rate
Ki ([4]; Dixon plots, mean ± SD for 4 to 5 determinations, read-out: Ki for Factor X Activation, Intrinsic): 3.05 ± 1.77 µM
IC50 ([4]; chromogenic assay, read-out: Concentration for 50% Inhibition, Rate of Factor Xa Formation, Intrinsic): 1.7 µM and < 5 µM
Factor Xa Formation (% of Control Rate) RVVX [2]: 34
IC50 ([2]; read-out: Concentration for 50% Inhibition, Rate of Factor Xa Formation, RVV.X): 104 µM
Ki ([2]; read-out: Ki for Factor X Activation, RVV-X): 123 ± 23.9 µM
Thrombin Formation (% of Control Rate) [3]: 0 % of Control Rate
prevention of thrombin formation compared to buffer only ([3]; 200 uM of each peptide): greater than 40%
Ki ([3]; assays varying the substrate prothrombin, read-out: Ki for Factor Xa Function): 16.2 ± 4.54 µM
inhibition of RVV-X pathway Factor X coagulant activity ([5]; clot formation assay): inhibited
IC50 ([5]; clotting assay, read-out: Concentration for 50% Inhibition, Coagulant Activity, RVV.X): 14 µM
inhibition of extrinsic pathway-mediated Factor X coagulant activity ([6]; clot formation assay): less potent inhibitor
IC50 ([6]; read-out: Concentration for 50% Inhibition, Coagulant Activity, Extrinsic, clotting assay): > 500 µM
inhibition of intrinsic pathway Factor X coagulant activity ([7]; clot formation assay): inhibited
IC50 ([7]; read-out: Concentration for 50% Inhibition, Coagulant Activity, Intrinsic, clotting assay): 46 µM

IVGGQECKDGECPWQA(K) (C-terminal added Lys) [Peptide 195-210 + K]
Factor Xa Formation (% of Control Rate) Extrinsic [1]: 88 % of Control Rate
Factor Xa Formation (% of Control Rate) Intrinsic [4]: 98 % of Control Rate
Factor Xa Formation (% of Control Rate) RVVX [2]: 76
Thrombin Formation (% of Control Rate) [3]: 99 % of Control Rate
